Target: T1, human KV 1.5 (IKur) (Homo sapiens, UniProt P22460)
T1 construct: expressed in transfected cells
Test: block of IKur current in patch clamped L-929 cells expressing human Kv1.5
Assay type: cell-based
Conditions: L929, 0.3 μM; patch clamped mammalian L-929 cells stably expressing human Kv1.5; read-out: KV1_5% Inh L929 @0.3 μM

T1 sequence (P22460 whole entry): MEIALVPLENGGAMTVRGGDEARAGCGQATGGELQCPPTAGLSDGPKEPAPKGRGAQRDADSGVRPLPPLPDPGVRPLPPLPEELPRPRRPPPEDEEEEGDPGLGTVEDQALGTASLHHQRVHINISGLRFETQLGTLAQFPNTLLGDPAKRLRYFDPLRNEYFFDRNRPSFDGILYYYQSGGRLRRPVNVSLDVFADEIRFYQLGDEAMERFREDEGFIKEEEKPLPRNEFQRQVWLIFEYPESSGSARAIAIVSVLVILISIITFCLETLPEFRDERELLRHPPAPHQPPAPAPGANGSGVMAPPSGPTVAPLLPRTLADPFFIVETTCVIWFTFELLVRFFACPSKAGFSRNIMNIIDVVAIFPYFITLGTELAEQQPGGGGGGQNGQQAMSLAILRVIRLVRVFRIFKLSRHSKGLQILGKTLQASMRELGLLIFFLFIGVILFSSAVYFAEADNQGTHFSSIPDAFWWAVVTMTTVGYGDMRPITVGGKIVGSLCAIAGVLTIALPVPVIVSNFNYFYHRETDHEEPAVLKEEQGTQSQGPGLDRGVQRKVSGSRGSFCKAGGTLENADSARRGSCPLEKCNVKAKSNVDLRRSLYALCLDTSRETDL

| inhibition at 0.3 µM [%] | SMILES |
| --- | --- |
| 85.9 | O=C(c1cncc(-c2nc(NCc3ccccc3)c3c(-c4ccccc4)ccn3n2)c1)N1CCOCC1 [Example 84, (5-(4-(benzylamino)-5-phenylpyrrolo [1,2-f][1,2,4]triazin-2-yl)pyridin-3-yl)(morpholino) methanone] |
| 95.8 | COc1ncc(-c2nc(NCc3ccccc3)c3c(-c4ccccc4)ccn3n2)cc1S(N)(=O)=O [Example 94, 5-(4-(benzylamino)-5-phenylpyrrolo [1,2-f][1,2,4]triazin-2-yl)-2-methoxypyridine-3-sulfonamide] |
| 78.7 | NS(=O)(=O)c1cncc(-c2nc(NCc3ncc[nH]3)c3c(-c4ccccc4)ccn3n2)c1 [Example 146, 5-(4-((1H-imidazol-2-yl)methylamino)-5-phenylpyrrolo [1,2-f][1,2,4]triazin-2-yl)pyridine-3-sulfonamide] |
| 95.4 | c1ccc(CNc2nc(C3CCOCC3)nn3ccc(-c4ccccc4)c23)cc1 [Example 128, N-benzyl-5-phenyl-2-(tetrahydro-2H-pyran-4-yl)pyrrolo[1,2-f][1,2,4] triazin-4-amine] |
| 97.3 | COc1ncc(-c2nc(NCc3ccccn3)c3c(-c4ccccc4)ccn3n2)cc1S(N)(=O)=O [Example 147, 2-methoxy-5-(5-phenyl-4-(pyridin-2-ylmethylamino)pyrrolo[1,2-f][1,2,4]triazin-2-yl)pyridine-3-sulfonamide] |
| 62.5 | NS(=O)(=O)c1cncc(-c2nc(NCC3(O)CCCCC3)c3c(-c4ccccc4)ccn3n2)c1 [Example 145, 5-(4-((1-hydroxycyclohexyl)methylamino)-5-phenylpyrrolo [1,2-f][1,2,4]triazin-2-yl)pyridine-3-sulfonamide] |
| 93.8 | NS(=O)(=O)c1cncc(-c2nc(N3Cc4ccccc4C3)c3c(-c4ccccc4)ccn3n2)c1 [Example 143, 5-(4-(isoindolin-2-yl)-5-phenylpyrrolo [2,1-f][1,2,4]triazin-2-yl)pyridine-3-sulfonamide] |
| 97.5 | NS(=O)(=O)c1cncc(-c2nc(NCc3nccs3)c3c(-c4ccccc4)ccn3n2)c1 [Example 163, 5-(5-phenyl-4-((thiazol-2-ylmethyl)amino)pyrrolo [2,1-f][1,2,4]triazin-2-yl)pyridine-3-sulfonamide] |
| 89.2 | N#Cc1cccc(-c2nc(NCc3ccccn3)c3c(-c4ccccc4)ccn3n2)c1 [Example 66, 3-(5-phenyl-4-(pyridin-2-ylmethylamino)pyrrolo[1,2-f][1,2,4]triazin-2-yl)benzonitrile] |
| 97.9 | CCS(=O)(=O)Nc1cncc(-c2nc(NCc3ccccn3)c3c(-c4ccccc4)ccn3n2)c1 [Example 62, N-(5-(5-phenyl-4-(pyridin-2-ylmethylamino)pyrrolo[1,2-f][1,2,4]triazin-2-yl)pyridin-3-yl)ethanesulfonamide] |
| 67.5 | O=C(NC[C@H](O)c1ccccc1)c1nc(NCc2ccccc2)c2c(-c3ccccc3)ccn2n1 [Example 119, (R)-4-(benzylamino)-N-(2-hydroxy-2-phenylethyl)-5-phenylpyrrolo [1,2-f][1,2,4] triazine-2-carboxamide] |
| 90 | NC(=O)c1ccc(NC(=O)c2nc(NCc3ccccc3)c3c(-c4ccccc4)ccn3n2)cc1 [Example 115, 4-(benzylamino)-N-(4-carbamoylphenyl)-5-phenylpyrrolo [1,2-f][1,2,4] triazine-2-carboxamide] |
| 99.3 | Cc1nc(CNc2nc(-c3cncc(S(N)(=O)=O)c3)nn3ccc(-c4ccccc4)c23)cs1 [Example 32, 5-(4-((2-Methylthiazol-4-yl)methylamino)-5-phenylpyrrolo[1,2-f][1,2,4]triazin-2-yl)pyridine-3-sulfonamide] |
| 88.4 | CC(=O)Nc1ccc(NC(=O)c2nc(NCc3ccccc3)c3c(-c4ccccc4)ccn3n2)cc1 [Example 113, N-(4-acetamidophenyl)-4-(benzylamino)-5-phenylpyrrolo[1,2-f] [1,2,4] triazine-2-carboxamide] |
